Measured values: patent US7803816B2, “MCH receptor antagonists” (Hoffmann-La Roche Inc., priority 2005, dated 2010)
Where a name gives a salt, the structure may show the parent alone.

biological target: T1, recombinant human MCHR1-receptors (Homo sapiens, UniProt Q99705); test: MCHR filter binding assay (competition binding); settings: membranes from CHO-K1 cells expressing human MCHR1; 0.2 nM [Phe13,[125I]Tyr19]-MCH; read-out: IC50 (nM), in vitro activity (binding assay)
T1 construct: expressed in transfected cells
T1 sequence (Q99705 whole entry): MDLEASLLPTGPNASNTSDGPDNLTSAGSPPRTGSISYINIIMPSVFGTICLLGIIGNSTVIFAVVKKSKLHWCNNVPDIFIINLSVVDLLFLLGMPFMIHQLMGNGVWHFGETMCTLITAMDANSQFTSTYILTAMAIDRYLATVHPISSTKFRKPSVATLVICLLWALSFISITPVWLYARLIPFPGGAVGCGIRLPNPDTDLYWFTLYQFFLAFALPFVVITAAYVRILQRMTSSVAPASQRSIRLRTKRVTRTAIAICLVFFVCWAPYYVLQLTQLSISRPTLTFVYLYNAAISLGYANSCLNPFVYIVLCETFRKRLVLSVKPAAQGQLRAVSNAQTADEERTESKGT
Experimental: MCHR Filter Binding Assay
Competition binding assays were performed using membranes from CHO-K1 cells stably expressing the recombinant human MCHR1-receptors. Binding reactions (90 μl, final volume) were carried out at rt by incubating 2.8 μg membranes with 0.2 nM [Phe^13,[^125I]Tyr^19]-MCH (PerkinElmer) in the absence or presence of various concentrations of competing ligands in binding buffer (50 mM HEPES, 2.5 mM CaCl2, 0.05 mM BSA, 1 mM phenanthroline, 0.03 mM Triton X-100). [Phe^13,[^125I]Tyr^19]-MCH was added 15 min following the addition of unlabeled competing ligands, and the reactions incubated for a 1 h period. The reactions were terminated by rapid filtration over pretreated 96-well filter plates (Millipore; MultiScreen 0.65 μm GFB filter plates). Filter Plates were treated for 12 h at 4° C. with a 0.5% polyvinylpyrrolidone solution containing 1% BSA and 0.1% Tween 20, and then washed with an ice-cold solution of 10 mM Tris, pH 7.5 (5×200 μl). The plates were drained following a 5 min incubation with binding buffer (200 μl) at rt. Following termination of the binding reactions, the filters were washed with ice-cold binding buffer (4×200 μl). The filter plates were air dried for 30 min, scintillation cocktail (60 μl) added to each well and radioactivity bound to the plates was determined using a Micro-beta plate reader (Wallace/PerkinElmer).

First: COC(=O)Nc1ccc2c(c1)C[C@H](CN1CCC(n3c(C(C)(C)C)nc4cc(C)ccc43)CC1)C2 [Example 40, {(R)-2-[4-(2-tert-Butyl-5-methyl-benzoimidazol-1-yl)-piperidin-1-ylmethyl]-indan-5-yl}-carbamic acid methyl ester]
Second: Cc1ccc2c(c1)nc(Cl)n2C1CCN(C[C@@H]2Cc3ccc(NC(=O)C4CC4)cc3C2)CC1 [Example 30, Cyclopropanecarboxylic acid {(R)-2-[4-(2-chloro-5-methyl-benzoimidazol-1-yl)-piperidin-1-ylmethyl]-indan-5-yl}-amide; dihydrochloride]
The IC50 of the first is lower: < 20 nM for the first, 200 to 5000 nM for the second.

First: Cc1ccc2c(c1)nc(C(C)C)n2[C@@H]1CCN(CC2Cc3ccc(NC(=O)C4CC4)cc3C2)C[C@H]1O (stereo in doubt) [Example 2, Cyclopropanecarboxylic acid {(R)-2-[(3R,4R)-3-hydroxy-4-(2-isopropyl-5-methyl-benzoimidazol-1-yl)-piperidin-1-ylmethyl]-indan-5-yl}-amide]
Second: CCc1nc2cc(C)ccc2n1C1CCN(C[C@@H]2Cc3ccc(NC(=O)C(C)C)cc3C2)CC1OC (stereo partly drawn) [Example 61, N-{(R)-2-[4-(2-Ethyl-5-methyl-benzoimidazol-1-yl)-3-methoxy-piperidin-1-ylmethyl]-indan-5-yl}-isobutyramide]
The IC50 of the first is higher: 20 to 200 nM for the first, < 20 nM for the second.

First: CO[C@@H]1CN(C[C@H]2Cc3ccc(Br)cc3C2)CC[C@H]1n1c(C(C)(C)C)nc2cc(C)ccc21 [Example 26, 1-[(3R,4R)-1-((S)-5-Bromo-indan-2-ylmethyl)-3-methoxy-piperidin-4-yl]-2-tert-butyl-5-methyl-1H-benzoimidazole]
Second: Cc1ccc2c(c1)nc(Cl)n2C1CCN(C[C@@H]2Cc3ccc(N)cc3C2)CC1 [Example 31, (R)-2-[4-(2-Chloro-5-methyl-benzoimidazol-1-yl)-piperidin-1-ylmethyl]-indan-5-ylamine; dihydrochloride]
The IC50 of the first is lower: 20 to 200 nM for the first, 200 to 5000 nM for the second.

First: CO[C@@H]1CN(CC2Cc3cccc(Cl)c3C2)CC[C@H]1n1c(C)nc2cc(C)ccc21 (stereo partly drawn) [Example 97, 1-[(3R,4R)-1-(4-Chloro-indan-2-ylmethyl)-3-methoxy-piperidin-4-yl]-2,5-dimethyl-1H-benzoimidazole]
Second: Cc1ccc2c(c1)nc(C(C)(C)O)n2C1CCN(CC2Cc3ccc(Cl)cc3C2)CC1 (stereo not shown) [Example 14, 2-{1-[1-(5-Chloro-indan-2-ylmethyl)-piperidin-4-yl]-5-methyl-1H-benzoimidazol-2-yl}-propan-2-ol]
The IC50 of the first is higher: 20 to 200 nM for the first, < 20 nM for the second. The second is the more potent here.

CO[C@H]1CN(C[C@@H]2Cc3ccc(NC(=O)C(F)F)cc3C2)CC[C@@H]1n1c(C2CC2)nc2cc(C)ccc21 [Example 63, N-{(R)-2-[(3S,4S)-4-(2-Cyclopropyl-5-methyl-benzoimidazol-1-yl)-3-methoxy-piperidin-1-ylmethyl]-indan-5-yl}-2,2-difluoro-acetamide] and Cc1ccc2c(c1)nc(C)n2C1CCN(C[C@H]2Cc3ccc(NC(=O)Cc4cccs4)cc3C2)CC1 [Example 38, N-{(S)-2-[4-(2,5-Dimethyl-benzoimidazol-1-yl)-piperidin-1-ylmethyl]-indan-5-yl}-2-thiophen-2-yl-acetamide] cannot be ordered by IC50: < 20 nM for the first, < 20 nM for the second.

First: CO[C@@H]1CN(C[C@@H]2Cc3ccc(NC(=O)C(C)C)cc3C2)CC[C@H]1n1c(C)nc2cc(C)ccc21 [Example 16, N-{(R)-2-[(3R,4R)-4-(2,5-Dimethyl-benzoimidazol-1-yl)-3-methoxy-piperidin-1-ylmethyl]-indan-5-yl}-isobutyramide; dihydrochloride]
Second: N-{(R)-2-[(3R,4R)-4-(2,5-Dimethyl-benzoimidazol-1-yl)-3-methoxy-piperidine-1-carbonyl]-indan-5-yl}-isobutyramide [Example 57]
The IC50 of the first is lower: 20 to 200 nM for the first, 200 to 5000 nM for the second. The first is the more potent here.

With Cc1ccc2c(c1)ncn2C1CCN(CC2Cc3cccc(Cl)c3C2)CC1 (stereo not shown) [Example 102, 1-[1-(4-Chloro-indan-2-ylmethyl)-piperidin-4-yl]-5-methyl-1H-benzoimidazole; compound with trifluoroacetic acid] the IC50 was 200 to 5000 nM.
